Measured values as given in patent publication US20070149465A1, “COMPOSITIONS AND METHODS FOR PREVENTION AND TREATMENT OF CACHEXIA” (priority 2005, published 2007).
Read-outs that look alike come from different tables or passages of the source.

What was measured:
[1] = for Formoterol solubility: 25° C.
[2] = test system: AH-inoculated rats; test: Rat AH130 Ascites Hepatoma Model of Cancer Cachexia, AH-inoculated rats; assay type: in vivo, female Wistar rats; conditions: for Carcass Weights Mean / Gastrocnemius Weights Mean / Heart Weights Mean: normalized to 100 g Day 5 Total Body Weight
Method: (§1) Following the method of Busquets et al (Busquets S, et al: Cancer Res 64:6725-31, 2004), female Wistar rats were inoculated (Day 0) intra-peritoneally (i.p.) with 2×10^7 cells/animal of Yoshida AH-130 ascites hepatoma (AH) cells. Control animals were inoculated with an equivalent amount of sterile saline solution. […] The animals were sacrificed on Day 5. Upon sacrifice, wet weights of heart and gastrocnemius muscle were determined. Carcass (after gastrocnemius, heart, and ascites removal) weight was also determined upon sacrifice.
(§2) Treatment Group=Inoculation Type/Vehicle, or Treatment Group=Inoculation Type/F(x)R(y) where, Inoculation Type is either AH or Saline, F is formoterol fumarate, R is roxithromycin, and the parenthetical values are formoterol fumarate and roxithromycin doses (i.p. in mg/kg).

[3] = cited from earlier work; for estimated shelf-life: compositions of Banerjee et al.; for rate constant of decomposition: 60° C., buffer 5 mM, ionic strength 0.05
[4] = test system: Saline-inoculated rats; test: Rat AH130 experiments, saline-inoculated control rats given drug; assay type: in vivo, female Wistar rats
Method: as §1, §2

[5] = Osmolality of formoterol filtrate in citrate buffers; assay type: physicochemical; conditions: 25° C.
[6] = Exp 1 Group 3, AH, F 1, R 0 mg/kg i.p., Day 5
[7] = Exp 2 Group 7, AH, F 1, R 0 mg/kg i.p., Day 5
[8] = Exp 3 Group 13, AH, F 1, R 0 mg/kg i.p., Day 5
[9] = Exp 4 Group 18, AH, F 1, R 0 mg/kg i.p., Day 5, sample weight normalized to 100 g Day 5 Total Body Weight
[10] = Exp 2 Group 10, Saline, F 1, R 0 mg/kg i.p., Day 5, normalized to 100 g Day 5 Total Body Weight

COc1ccc(C[C@@H](C)NC[C@H](O)c2ccc(O)c(NC=O)c2)cc1.COc1ccc(C[C@@H](C)NC[C@H](O)c2ccc(O)c(NC=O)c2)cc1.O=C(O)/C=C/C(=O)O [formoterol fumarate]
Formoterol solubility ([1]; 20 mM citrate, pH 4): 2710 µg/mL
Formoterol solubility ([1]; 20 mM citrate, pH 5): 2350 µg/mL
Formoterol solubility ([1]; 20 mM citrate, pH 6): 2470 µg/mL
Formoterol solubility ([1]; 20 mM citrate, pH 7): 2330 µg/mL
Formoterol solubility ([1]; 50 mM citrate, pH 4): 3690 µg/mL
Formoterol solubility ([1]; 50 mM citrate, pH 5): 2770 µg/mL
Formoterol solubility ([1]; 50 mM citrate, pH 6): 2780 µg/mL
Formoterol solubility ([1]; 50 mM citrate, pH 7): 2920 µg/mL
Formoterol solubility ([1]; 100 mM citrate, pH 4): 3010 µg/mL
Formoterol solubility ([1]; 100 mM citrate, pH 5): 2690 µg/mL
Formoterol solubility ([1]; 100 mM citrate, pH 6): 2870 µg/mL
Formoterol solubility ([1]; 100 mM citrate, pH 7): 2600 µg/mL
Formoterol solubility ([1]; 200 mM citrate, pH 4): 3690 µg/mL
Formoterol solubility ([1]; 200 mM citrate, pH 5): 2900 µg/mL
Formoterol solubility ([1]; 200 mM citrate, pH 6): 2720 µg/mL
Formoterol solubility ([1]; 200 mM citrate, pH 7): 2840 µg/mL
solubility ([1]; citrate buffer concentrations between 20 and 200 mM at pH 4 to pH 7): > 1000 µg/mL
Carcass Weights Mean [2, 6]: 95.35 g
Gastrocnemius Weights Mean [2, 6]: 0.551 g
Heart Weights Mean [2, 6]: 0.337 g
Carcass Weights Mean [2, 7]: 89.7 g
Gastrocnemius Weights Mean [2, 7]: 0.499 g
Heart Weights Mean [2, 7]: 0.348 g
Carcass Weights Mean [2, 8]: 93.1 g
Gastrocnemius Weights Mean [2, 8]: 0.489 g
Heart Weights Mean [2, 8]: 0.376 g
Carcass Mean [2, 9]: 97.8
Gastrocnemius Mean [2, 9]: 0.502
Heart Mean [2, 9]: 0.367
gastrocnemius muscle loss compared with AH/vehicle group ([2]; Experiment 1, AH/F(1)R(0) group): significantly less
estimated shelf-life ([3]; 5° C.): about 6.2 years
estimated shelf-life ([3]; 25° C.): about 7.5 months
rate constant of decomposition ([3]; pH 3): approximately 0.62 day^1
rate constant of decomposition ([3]; pH 4): ~0.11 day^1
rate constant of decomposition ([3]; pH 5): ~0.044 day^1
rate constant of decomposition ([3]; pH 7): ~0.55 day^1
Carcass Weights Mean [4, 10]: 97.6 g
Gastrocnemius Weights Mean [4, 10]: 0.613 g
Heart Weights Mean [4, 10]: 0.410 g
gastrocnemius muscle weights compared with Saline/vehicle group ([4]; Experiment 2, Saline/F(1)R(0) group): approximately the same
Formoterol Filtrate osmolality ([5]; 20 mM citrate, pH 4): 49 mOsm/kG
Formoterol Filtrate osmolality ([5]; 20 mM citrate, pH 5): 56 mOsm/kG
Formoterol Filtrate osmolality ([5]; 20 mM citrate, pH 6): 60 mOsm/kG
Formoterol Filtrate osmolality ([5]; 20 mM citrate, pH 7): 66 mOsm/kG
Formoterol Filtrate osmolality ([5]; 50 mM citrate, pH 4): 113 mOsm/kG
Formoterol Filtrate osmolality ([5]; 50 mM citrate, pH 5): 130 mOsm/kG
Formoterol Filtrate osmolality ([5]; 50 mM citrate, pH 6): 140 mOsm/kG
Formoterol Filtrate osmolality ([5]; 50 mM citrate, pH 7): 146 mOsm/kG
Formoterol Filtrate osmolality ([5]; 100 mM citrate, pH 4): 205 mOsm/kG
Formoterol Filtrate osmolality ([5]; 100 mM citrate, pH 5): 249 mOsm/kG
Formoterol Filtrate osmolality ([5]; 100 mM citrate, pH 6): 275 mOsm/kG
Formoterol Filtrate osmolality ([5]; 100 mM citrate, pH 7): 278 mOsm/kG
Formoterol Filtrate osmolality ([5]; 200 mM citrate, pH 4): 392 mOsm/kG
Formoterol Filtrate osmolality ([5]; 200 mM citrate, pH 5): 473 mOsm/kG
Formoterol Filtrate osmolality ([5]; 200 mM citrate, pH 6): 527 mOsm/kG
Formoterol Filtrate osmolality ([5]; 200 mM citrate, pH 7): 543 mOsm/kG
